Reference: US20090192198A1, “INHIBITORS OF THE 11-BETA-HYDROXYSTEROID DEHYDROGENASE TYPE 1 ENZYME” (Abbott Laboratories, priority 2005, published 2009)

What was measured:
HSD-1 = assay: Monkey ex vivo HSD1 activity (cortisone to cortisol in harvested tissue); set-up: species or system Cynomolgus Monkeys
Description: Harvested tissues (approximately 150 mg) were minced into small, 2 mm pieces in the presence of 5× volume of incubation buffer. Cortisone at final concentrations of 0, 3, 10 or 30 μM was added to each well. Cell culture plates with tissues were incubated at 37° C. for three hours. Two-hundred μL of tissue culture supernatant was then removed and spun at 1000 rpm in an Eppindorf tube, and then 100 μL of resulting supernatant was aliquotted into two tubes for LCMS analysis of cortisol.

Male CD-1 mice [1] = assay: 24-hour inhibitory avoidance in mice, subchronic (3 administration) dosing; assay type: in vivo; details: 30 mg/kg PO, BID the day before training and one hour before training, vs vehicle control mice (FIG. 3)
Description: Male CD-1 mice were obtained from Charles River, Wilmington, Mass. Mice were group-housed 10 per cage. The body weight upon arrival was 20-25 g. Food and water were available ad libitum except during experiments. Animals were acclimated to the animal facilities for a period of at least one week prior to commencement of experiments. Animals were tested in the light phase of a 12-hour light:12-hour dark schedule (lights on 0600 hours).
Compound AA and Compound BB were synthesized at Abbott Laboratories. […] Compound AA was administered in a cloudy, fine suspension, while Compound BB was administered in a solution.
On training day, mice were injected with Compound AA, Compound BB or vehicle one-hour PO before training. One hour following injection (start of training) mice were subjected to a training session in which they were placed in a lighted compartment of a two-compartment chamber (Gemini apparatus, San Diego Instruments, San Diego, Calif.) with a manually operated gate separating the compartments. […] Twenty-four hours later mice were again tested in the same apparatus, except without shock, and the transfer latency from the lighted to the dark compartment recorded and used as an index of memory for the punished response 24 hours earlier. […] Data were analyzed using Mann Whitney U comparisons. […]

phosphorylated CREB = assay: Phosphorylated CREB immunohistochemistry in brain after food-in-diet dosing; assay type: in vivo, mice; details: 18 days food-in-diet, 10 and 100 mg/kg/day (FIG. 2)
Description: In vivo signaling studies were conducted to examine the biochemical pathways that may be mechanistically involved in the cognitive efficacy associated with Compound AA. An important signaling process that serves as a biochemical correlate of synaptic plasticity underlying learning and memory is the phosphorylation of CREB (c-AMP-response element binding protein), a transcription factor critical to long-term memory.
(§1) Male CD-1 mice were obtained from Charles River, Wilmington, Mass. Mice were group-housed 10 per cage. The body weight upon arrival was 20-25 g. Food and water were available ad libitum except during experiments. […]
Following perfusion, brains were removed and postfixed in 20% sucrose-PBS (phosphate buffered saline) overnight and subsequently cut on a cryostat (40 μm coronal sections) and collected as free-floating sections in PBS. […] Immuno-reactivity (IR) was quantified using an image analysis system (Leica, Quantimet 500) that determined number and/or area of peroxidase substrate-positive stained neurons from digitized photomicrographs according to a pixel gray level empirically determined prior to analysis. Overall statistical significance was determined using a one-way ANOVA, with Dunnett's post hoc analyses used to determine significance (p<0.05 was considered significant).

Male CD-1 mice [2] = assay: 24-hour inhibitory avoidance task in mice, drug-in-diet dosing; assay type: in vivo; details: drug-in-diet 10 and 100 mg/kg/day in Western diet, tested from day 17, vs vehicle control mice (FIG. 1)
Description: The 24-hour inhibitory avoidance task in mice is a measure of one-trial learning and memory consolidation in response to a discrete aversive event (foot-shock). Mice are first placed in an illuminated compartment of a two-compartment apparatus. Mice will naturally step through into an adjoining dark compartment, which they prefer. When the mice enter the dark they receive a mild foot-shock. To assess memory, mice are tested 24 hours later and the length of time the animal refrains from entering the dark compartment is recorded (higher latencies indicate improved memory for the aversive event).
as §1
On the first day of testing (17 days after drug-in-diet was presented) mice were removed from the colony room in their home cage, brought to the testing room, and left undisturbed for 2 hours prior to testing initiation. […] The latency to enter the dark chamber was recorded and was the dependent variable measured for assessing memory retention (latency is defined as entry of the whole mouse; all 4 paws on the grids in the dark side, plus the tail in the chamber for 5 sec; 180 sec is maximum latency). Data were analyzed using Mann Whitney U comparisons. […]

Fisher rats = assay: Rat wake EEG power spectrum and REM sleep parameters; assay type: in vivo; details: 30 mg/kg, 3 times at 24, 26, and 0.1 hours before measurement
Description: EEG of Fisher rats (n=8/group) with chronically implanted supracortical EEG-electrodes were analyzed for an 8 h period. Intraindividual drug-induced changes of power spectra were analyzed. For REM sleep the number of REM episodes, latency to first REM, and total REM time was analyzed.

[3] = system: serotonin (5-HT) levels (medial prefrontal cortex, hippocampus); assay: Microdialysis, cortical/hippocampal serotonin release; assay type: in vivo, rat; details: single administration 30 mg/kg, p.o.; medial prefrontal cortex and hippocampus (FIGS. 7a, 7b)
Description: (§2) Microdialysis studies (resting or challenging conditions) in freely moving, male Sprague Dawley rats (Janvier, 295-315 g, n=5-8/treatment group) were performed using stereotactically instrumented microdialysis probes (CMA/12-14-2): mPFC, hippocampus. Aliquots of the same microdialysate fractions (6 before, and 9-12 after compound administration) were analyzed either for acetylcholine or for serotonin by HPLC and electrochemical detection.
This is a feature shared by marketed anti-depressive drugs and might indicate the potential use for 11β-HSD1 inhibitors as antidepressants/anxiolytic drugs. These findings remain to be confirmed by (i) investigating 11β-HSD1 inhibitors from different chemotype(s) in selected microdialysis studies and/or (ii) in animal models of depression/anxiety.

Male Sprague Dawley rats = assay: Short-term social recognition memory in the rat; assay type: in vivo; details: 30 mg/kg po at 24, 18 and 1 hour before first juvenile exposure, vs vehicle control rats (FIG. 4)
Description: Social memory and social cognition are impaired in disorders such as Alzheimer's disease and schizophrenia. One of the more commonly used preclinical models of social recognition memory is short-term social recognition in the rat, a model of short-term memory based on the recognition of a juvenile rat by an adult rat. […] The juvenile rat is then removed and reintroduced 120 min later, and interactive behavior of the adult rat is again monitored. If memory has been lost over the interval between trials 1 and 2, the extent of interaction is equal (expressed as a ratio of investigation time of T1/T2) and the ratio will be close to 1. However, if the adult remembers the juvenile, the investigation ratio declines. To test for non-specific effects, a novel juvenile is introduced at 120 minutes instead of the familiar juvenile. […]
Rats were pre-dosed po at 24, 18 and 1 hour before first juvenile rat exposure with vehicle, or Compound CC (30 mg/kg). […] The time the adult spent exploring (sniffing, grooming, close following) the juvenile during this test session was recorded, and defined as the first investigation duration. […] Data were analyzed using a one-way analysis of variance. If there was a significant effect, subsequent post hoc significance was determined using Dunnett's multiple comparison testing (p<0.05 was regarded as significant).

[4] = system: acetylcholine release (mPFC, hippocampus); assay: Microdialysis, cortical/hippocampal acetylcholine release; assay type: in vivo, rat; details: single administration 30 mg/kg, p.o.
Description: as §2

SMILES | ex vivo inhibition of monkey brain, fat and liver HSD1 (HSD-1; 2.5 and 16 hours following a single oral 10 mg/kg dose) | HSD-1 ex vivo activity, Mean % Veh Control (HSD-1; Cerebral Cortex, 16 hours after single 10 mg/kg oral dose) [%] | HSD-1 ex vivo activity, Mean % Veh Control (HSD-1; Hippocampus, 16 hours after single 10 mg/kg oral dose) [%] | HSD-1 ex vivo activity, Mean % Veh Control (HSD-1; Liver, 2.5 hours after single 10 mg/kg oral dose) [%] | HSD-1 ex vivo activity, Mean % Veh Control (HSD-1; Liver, 16 hours after single 10 mg/kg oral dose) [%] | HSD-1 ex vivo activity, Mean % Veh Control (HSD-1; Mesenteric Fat, 2.5 hours after single 10 mg/kg oral dose) [%] | HSD-1 ex vivo activity, Mean % Veh Control (HSD-1; Mesenteric Fat, 16 hours after single 10 mg/kg oral dose) [%] | memory retention (transfer latency), 24-hour inhibitory avoidance (Male CD-1 mice [1]) | phosphorylated CREB immuno-reactivity (phosphorylated CREB) | memory retention (Mean Transfer Latency), 24-hour inhibitory avoidance (Male CD-1 mice [2]) | reduction of total sleep time (Fisher rats; 8 h period) [%] | reduction of number of REM sleep episodes (Fisher rats; 8 h period (FIG. 5a)) [%] | reduction of REM time (Fisher rats; 8 h period (FIG. 5b)) [%] | increase of latency to first REM (Fisher rats; 8 h period (FIG. 5c)) [%] | microdialysate serotonin (5-HT) levels [3] | short-term memory retention (social recognition) (Male Sprague Dawley rats) | ACh release under resting conditions ([4]; acute) | ACh release under challenging conditions (home cage to novel cage and back) ([4]; cortex and hippocampus (FIGS. 6a-6c))
CC(C)(Oc1ccc(F)cc1Cl)C(=O)NC1C2CC3CC1CC(S(C)(=O)=O)(C3)C2 (stereo not drawn) [S, 2-(2-Chloro-4-fluorophenoxy)-2-methyl-N-[(E)-5-(methylsulfonyl)-2-adamantyl]propanamide] | potent ex vivo inhibition | 30 | 42 | 38 | 9 | 90 | 50 | significant improvement in memory retention | increase in phosphorylated CREB | significant improvement in memory retention |  |  |  |  |  |  |  | 
O=C(CN1CCN(c2ccc(C(F)(F)F)cn2)CC1)NC1C2CC3CC1CC(O)(C3)C2 (stereo not drawn) [Compound CC, N-[(E)-5-Hydroxy-2-adamantyl]-2-{4-[5-(trifluoromethyl)pyridin-2-yl]piperazin-1-yl}acetamide] |  |  |  |  |  |  |  |  |  |  | 10 | 16 | 23 | 62 | long-lasting increase of serotonin (5-HT) levels | significant improvement in short-term memory retention | did not change ACh release | did not induce any further stimulation of ACh release
